From a melting point compilation (Tetko et al.)

SMILES | melting point
N=C(N)N/N=C(\C(=S)Nc1ccc(Br)cc1)c1ccccc1 | 210 to 211 °C
c1cnc2nccnc2c1 | 143 °C
CCCOC(=O)C1=C(C)NC(=S)NC1c1ccco1 (configuration not stated) | 177 °C
CC(=O)c1ccc(O)c(C)c1O | 154 °C
NC(=S)CNC(=O)OCc1ccccc1 | 144 to 146 °C
O=C(Nc1ccccc1C#CC#Cc1ccccc1NC(=O)c1ccccc1)c1ccccc1 | 211 °C
COc1ccc(-c2c(C(=O)O)sc(SC)c2C#N)cc1 | 209 to 214 °C
Oc1ccc(C2CCCCC2)cc1 | 133 °C
O=C1CCCO1 | -43.3 °C
CC1=Nc2ccc3ccccc3c2C1(C)C | 117 °C
Cc1ccccc1N(C)C | -60 °C
Brc1ccc(Oc2ccc(Br)c(Br)c2Br)c(Br)c1 | 119 to 121 °C
O=C(O)CSC(=S)SCC(=O)O | 170 to 175 °C
Fc1ccc(OCC2CO2)cc1 (configuration not stated) | 19.5 °C
CC(=O)N1N=C(c2ccc3ccccc3c2)C[C@@H]1c1ccc(Cl)c(Cl)c1 | 242 °C
CSC(=NS(=O)(=O)c1ccccc1)SC | 105 to 107 °C
NC(=O)c1sccc1Cl | 105 to 107 °C
COc1ccc(/N=N/c2c(N)nn3c(C)cc(C)nc23)cc1 | 201 to 203 °C
O=C(O)CN1C(=O)CSC1=S | 147 °C
CCCCOC(=O)c1ccccc1C(=O)OCCCC | -35 °C
Oc1cccc(CN2CCCCC2)c1 | 140 °C
Cc1cc(C)c(CCl)cc1CCl | 97 to 99 °C
NNC(=O)c1ccc(F)cc1F | 141 to 142 °C
Nc1nnc(-c2ccccc2)s1 | > 270 °C
CC(=O)OC1CC2(O)C(C)C(=O)C3(C(O)CC4C(C)(C)CCC(OC(C)=O)C4(C)C13)C2O (configuration not stated) | 234 °C
O=S(=O)(Cl)c1ccccc1C(F)(F)F | 23 °C

SMILES | melting point
Cc1ccc(P(=S)(c2ccc(C)cc2)c2ccc(C)cc2)cc1 | 185 to 186 °C
O=P(O)(O)OCC(O)CO (configuration not stated) | -25 °C
O=C1c2ccccc2C(=O)N1Cl | 185 to 189 °C
CC12CCC3C(C(=O)CC4CC(O)CCC43C)C1CCC2O (configuration not stated) | 198 °C
COC(=O)c1cc2c(s1)-c1cc(Cl)ccc1SC2 | 158 to 160 °C
CCCCOC(=O)CC(CC(=O)OCCCC)(OC(C)=O)C(=O)OCCCC | -59 °C
O=C1OC2(c3ccc(Cl)cc3Oc3cc(Cl)ccc32)c2ccccc21 | 253 to 255 °C
COC(=O)C=C(CCl)OC | 25 °C
CCN(CCO)c1ccc(N=Nc2ccc([N+](=O)[O-])cc2)cc1 | 161 °C
CCN1CCCC1CNC(=O)c1cc(S(=O)(=O)CC)ccc1OC (configuration not stated) | 182 °C
CC1C(=O)C23C4CC5C(C)(C)CCC(=O)C5(C)C2C(=O)CC1C3OC(C)(C)O4 (configuration not stated) | 197 °C
BrCc1nc2ccccc2nc1CBr | 150 to 154 °C
CCOC(=O)c1cccnc1-c1ncccc1C(=O)OCC | 90 °C
CC(C)CC1=CC(=Cc2ccc(-c3ccc([N+](=O)[O-])cc3)o2)C(=O)O1 | 162 to 163 °C
O=C(Nc1ccc(Oc2ccc(Cl)cc2)c(Cl)c1)c1cc(I)cc(I)c1O | 169 °C
O=C(CNC(=O)OCC1c2ccccc2-c2ccccc21)Oc1c(F)c(F)c(F)c(F)c1F | 159 to 160 °C
NNC(=S)NCCN1CCOCC1 | 166 °C
O=C1N[C@H](Cc2ccccc2)CO1 | 87 to 90 °C
CC(C)(N)P(=O)(O)O | 287 to 290 °C
CCC12CCCN3CCC4(c5cccc(OC)c5N(C(C)=O)C4CC1)C32 (configuration not stated) | 208 °C
c1nnn[nH]1 | 157 °C
Clc1ccc(CBr)cc1 | 49 °C
COc1ccc(C(=O)/C=C(\C)c2ccc(OC)cc2)cc1 | 86 to 87 °C
Nc1cccc(-c2ccccc2)c1 | 33 °C
CC(Cc1ccccc1)NCCC(c1ccccc1)c1ccccc1 (configuration not stated) | 38 °C
CN(C)CCC(c1ccc(Br)cc1)c1ccccn1 (configuration not stated) | < 25 °C

SMILES | melting point
Cc1cc(C(F)(F)F)cc(NN)n1 | 79 to 81 °C
Cc1cc(C)c(NC(=O)CN(CC(=O)O)CC(=O)O)c(C)c1 | 218 to 221 °C
O=C(O)c1cccc(N=C=S)c1 | 165 °C
O=C(Nc1cccnc1Cl)c1ccc(Cl)cc1 | 146 to 148 °C
CC(=O)Nc1ccc(N=Nc2ccc(N)cc2)cc1 | 212 °C
OCc1ccc(-c2cncnc2)cc1 | 127 to 130 °C
O=C(O)CC(F)(F)F | 9.7 °C
CC(Oc1ccc(Cl)cc1Cl)C(=O)O (configuration not stated) | 122 °C
O=C(C1=NOC2C(=O)N(c3cc(Cl)ccc3Cl)C(=O)C12)c1ccccc1 (configuration not stated) | 185 °C
CC1=Nc2ccccc2Sc2c1c(=O)n(-c1ccccc1)c1ccccc21 | 231 °C
N#C/C(=N\Nc1cccc(C(=O)O)c1)c1nc2ccccc2s1 | 200 °C
CC1CN(c2ccccc2)NC1=O (configuration not stated) | 133 to 136 °C
CC(=O)OC1(C(C)=O)CCC2C3C=C(Cl)C4=CC(=O)C=CC4(C)C3CCC21C (configuration not stated) | 168 °C
CC(C)NCC(O)c1ccc(NS(C)(=O)=O)cc1 (configuration not stated) | 207 °C
CC(=O)COc1c([N+](=O)[O-])ccc(F)c1F | 40 to 45 °C
COc1ccc2c(c1)CC1(CCC(O)(c3ccc(C(C)(C)C)cc3)CC1)C2O (configuration not stated) | 102 to 106 °C
CCCC(O)(CCC)C1(C)CCC(C(=O)O)C(C)(C)O1 (configuration not stated) | 111 to 112 °C
Cc1ccc(CBr)cc1 | 35 °C
Oc1ccc(Cl)c(F)c1 | 52 °C
Nc1ccc(Oc2c(Cl)cccc2Cl)nc1 | 120 to 122 °C
COC(=O)Nc1nc2ccccc2[nH]1 | 305 °C
CCCCCCCCCCCC(=O)CC | 34 °C
CC(O)C(Cl)(Cl)Cl (configuration not stated) | 50.5 °C
Nc1n[nH]c(N)c1Cc1ccccc1Cl | 120 to 121 °C
Cc1cc(O)cc(O)c1C | 136 °C

Results, then the compound that gave them:

melting point | SMILES
38.5 °C | CC1(O)C(=O)CC2CC1C2(C)C (configuration not stated)
166 °C | O=C(O)CC(CC(=O)O)C(=O)O
72 °C | Cc1noc(-c2ccccc2)c1CBr
123 °C | CN(CC(=O)N1CCOCC1)Cc1c(Cl)cccc1NC(=O)c1ccccc1
160 °C | Nc1ccccc1NC(C(=O)Nc1ccccc1)(c1ccccc1)c1ccccc1
151 °C | NC(=O)OCC(COC(N)=O)c1ccccc1
48 to 50 °C | FC(F)(F)c1ccc(-c2nc(CCl)no2)cc1
138 to 140 °C | CC(=O)c1sc(-c2ccc(Cl)cc2)cc1N
225 °C | CCOC(=O)c1nn(-c2ccc(C)cc2)c(C)c1C(=O)C1=NOC2C(=O)N(c3cc(Cl)ccc3Cl)C(=O)C12 (configuration not stated)
-93 °C | CC(C)CI
-49 °C | Cc1ccsc1C
166 °C | O=C1/C(=C/c2ccccc2O)SC(=S)N1CN1CCCCC1
92 to 94 °C | O=C(Cl)C1=Cc2cc(Cl)ccc2OC1
203 °C | Nc1ccc(C2(c3ccc(N)cc3)OC(=O)c3ccccc32)cc1
170 °C | Cc1ccc(S(=O)(=O)NC(=O)NN2CCCCCC2)cc1
300 °C | O=C(O)C=Cc1ccc(C=CC(=O)O)cc1
117 to 120 °C | CC(C)(Oc1ccc(C#N)cc1)C(=O)O
243 to 246 °C | O=[N+]([O-])c1ccc(-c2nc(-c3ccccc3)c(-c3ccccc3)[nH]2)cc1
273 °C | O=C(O)c1ccccc1C(=O)Nc1ccc(S(=O)(=O)N=c2[nH]ccs2)cc1
250 to 255 °C | O=C(O)C1CCC(c2ccc(Cl)cc2)CC1 (configuration not stated)
128 °C | Oc1ccc2cc(Br)ccc2c1
141 °C | COc1cc2c(cc1OC)C(=O)C2
214 °C | Cc1c(C)c(C)c2c(c1C)C(=O)CC2C(=O)O (configuration not stated)
185 to 187 °C | O=C(O)c1ccccc1CS(=O)c1ccccc1 (configuration not stated)
165 to 167 °C | CC12CCC(/C(=C/Nc3ccccc3)C1=O)C2(C)C (configuration not stated)

melting point | SMILES
164 °C | CN(C)c1ccc(C=C2C3=C(CCCC3)OC3=C2CCCC3)cc1
60 °C | ClC1(c2ccccc2)Cc2ccccc21 (configuration not stated)
-83 °C | CSC
59 °C | Brc1cccnc1Br
106 °C | CC(O)CN(CC(C)O)C(=O)COC(=O)c1ccccc1 (configuration not stated)
229 to 231 °C | CSc1nc2cc(N=Cc3ccccc3Cl)ccc2[nH]1
260 °C | Cc1ccc(C)c(N/N=C(\C#N)c2nc3ccccc3n2C)c1
178 °C | CCOC(=O)C1=Nc2cc3c(cc2=C1OC(C)=O)C(OC(C)=O)=C(C(=O)OCC)N=3
192 to 196 °C | CCc1n[nH]c2c1C(c1ccccc1)C(C#N)=C(N)O2 (configuration not stated)
40 °C | COc1ccc(C=O)c(OC)c1OC
165 to 167 °C | O=C(NCCCCc1ccccc1)c1cc([N+](=O)[O-])cc([N+](=O)[O-])c1
18.5 °C | CCOC(=O)c1ccc2c(c1)OCO2
69 to 70 °C | Cc1cc(Br)c(OCC(=O)NN)c2c1CCC2
-105 °C | CCC(C)(C)N
156 °C | COc1ccccc1N1CCN(CCCNc2cc(=O)n(C)c(=O)n2C)CC1
219 to 221 °C | Nc1ccc(I)cc1C(=O)O
161 to 162 °C | CC(=O)Nc1c(C(=O)Cc2c(C)cc(C)cc2C)oc2ccccc12
245 °C | CC1(C)OC2CC3C4CC(F)C5=CC(=O)C=CC5(C)C4C(O)CC3(C)C2(C(=O)CO)O1 (configuration not stated)
262 °C | O=C(O)c1cc(=O)cc(C(=O)O)o1
46 °C | COc1ccc(F)c(C=O)c1OC
285 °C | O=C1OC2(c3ccccc31)c1ccc(O)c(Br)c1Oc1c2ccc(O)c1Br
108 to 110 °C | O=C(O)c1cccc(CSc2cccs2)c1
72 to 73 °C | COc1ccc2c(c1C)CC2=O
-60 °C | CCC(=O)OC(C)c1ccccc1 (configuration not stated)
120 °C | Clc1c(Cl)c(Cl)c(C(Cl)Cl)c(Cl)c1Cl
